In PMC11626952, “Preclinical evaluation of radiolabeled tissue factor-targeted peptide for theranostics of hepatocellular carcinoma post percutaneous ethanol injection” (Theranostics, 2024):
Where a SMILES comes first, the peptide text is derived from it. Side-chain parts run from the residue outwards. The star is where a group is joined. NOTA = O=C(O)CN1CCN(CC(=O)O)CCN(CC(=O)*)CC1; PEG8 = NCCOCCOCCOCCOCCOCCOCCOCCOCCC(=O)O

Columns and labels:
[1] = format: physicochemical
From the text: (§1) instant thin layer chromatography. The stability of Al18F-NOTA-tTF in PBS (C) and FBS (D) via
(§2) instant thin layer chromatography. The stability of 68Ga-DOTA-tTF in PBS (E) and FBS (F) via
(§3) instant thin layer chromatography.
(§4) FBS: fetal bovine serum; PBS: phosphate-buffered saline.

[2] = format: in vitro ADME, bovine
From the text: as §1, §2, §3, §4

[3] = set-up: species or system Kunming mice; conditions: mouse, in vivo
Protocol: increased to 95 °C, and maintained for 15 min. The crude product was purified using a C18 Sep-Pak cartridge and sterilized for subsequent applications. Radiolabeling efficiency was assessed using radio-thin-layer chromatography with citrate solvent (0.1 M, pH 4.0) as the mobile phase.
Small animal biodistribution and pharmacokinetics study of Al18F-NOTA-tTF A small animal biodistribution experiment was conducted with female Kunming mice (5 weeks). The mice were divided into six groups with 3-4 mice in each group. Al18F-NOTA-tTF (1.2 MBq) was injected into KM mice via the tail vein and a 1% injected dose of Al18F-NOTA-tTF was prepared for reference. At 5 min,15 min, 30 min, 60 min, 90 min and 120 min post-injection, the KM mice were euthanized and organs of interest were collected, wet-weighed. The uptake in various organs and tissues was determined and expressed in terms of the percentage injected dose per gram (%ID/g, mean ± SD) after quantifying the radioactivity of the samples using an […]
For the pharmacokinetic study, each Kunming mouse was intravenously injected with a 3.7 MBq of Al18F-NOTA-tTF. Small amounts of blood were obtained through the orbital vein of the […]
weighed and measured for radioactivity by the γ-counter. The results are expressed as the percentage injected dose per gram (%ID/g).
(§5) Al18F-NOTA-tTF PET/CT imaging in mice bearing Hepa1-6 xenografts
(§6) Al18F-NOTA-tTF PET/CT imaging of Hepa1-6 tumor-bearing mice were intravenously injected with 100 μL of Al18F-NOTA-tTF (2.96 MBq). In the blocking experiments, unlabeled excess precursors (0.2 mg) were co-injected with Al18F-NOTA-tTF into Hepa1-6 mice (n = 3).
One hour after Al18F-NOTA-tTF injection, the mice were anesthetized and placed in the prone

tissue factor (TF) [4] = molecular target: T1, tissue factor (TF) (Mus musculus, UniProt P20352); assay: Al18F-NOTA-tTF PET/CT imaging in Hepa1-6 tumor-bearing mice; format: in vivo; conditions: for tumor uptake SUVmax, PEI group: n = 8
T1 construct: Hepa1-6 tumor-bearing mice received an intravenous injection of 100 μL of Al^18F-NOTA-tTF (2.96 MBq); from tissue; host or cells: subcutaneous Hepa1-6 tumours in male C57BL/6 mice
T1 sequence (P20352 29-294): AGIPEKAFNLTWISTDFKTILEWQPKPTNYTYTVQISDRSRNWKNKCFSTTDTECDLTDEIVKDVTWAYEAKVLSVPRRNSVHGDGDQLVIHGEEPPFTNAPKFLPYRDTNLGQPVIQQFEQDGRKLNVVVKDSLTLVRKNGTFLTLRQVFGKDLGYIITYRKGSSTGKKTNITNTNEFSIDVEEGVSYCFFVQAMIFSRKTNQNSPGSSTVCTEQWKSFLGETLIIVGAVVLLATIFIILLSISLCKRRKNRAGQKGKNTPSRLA
Protocol: […] Al^18F-NOTA-tTF PET/CT imaging was conducted on days 1 and 6 post-PEI. Hepa1-6 tumor-bearing mice received an intravenous injection of 100 μL of Al^18F-NOTA-tTF (2.96 MBq). Tumor volume and mouse body weight were monitored every 2 to 3 days. Biodistribution studies were performed on days 1 and 6 post-PEI, with mice divided into PEI and NC groups. Al^18F-NOTA-tTF (1.2 MBq) was administered via tail vein injection, and biodistribution results were expressed as the percentage of injected dose per gram (%ID/g).
Tumor-bearing mice were randomly divided into the HD-PEI treatment (HD-PEI, n = 8), LD-PEI treatment (LD-PEI, n = 8), and negative control (NC, n = 8) groups. Al^18F-NOTA-tTF PET/CT imaging was conducted on days 1, 5, and 12 post-PEI.^ 18F-FDG PET/CT imaging was conducted on days 2, 6, and 13 post-PEI. Hepa1-6 tumor-bearing mice received intravenous injections of 100 μL of Al^18F-NOTA-tTF (2.96 MBq) and^ 18F-FDG (2.96 MBq). Tumor volume and mouse body weight were monitored every 2 days. […]
increased to 95 °C, and maintained for 15 min. The crude product was purified using a C18 Sep-Pak cartridge and sterilized for subsequent applications. Radiolabeling efficiency was assessed using radio-thin-layer chromatography with citrate solvent (0.1 M, pH 4.0) as the mobile phase. […]
as §5, §6
One hour after Al18F-NOTA-tTF injection, the mice were anesthetized and placed in the prone […]
position on the scanning bed. The PET/CT imaging was acquired with a PET/CT scanner (uBio-EXPLORER, United Imaging, China). PET images were collected for 10 min and reconstructed to get more high-resolution images using an ordered subsets expectation maximization (OSEM) algorithm (4 OSEM iterations, resolution: 1.4 mmHD) with scatter, attenuation, and decay corrections applied. Regions of interest (ROIs) were drawn on the CT images and further mapped on PET. The SUVmax of the tumor and muscle were calculated and referred to as the tumor-to- […]
PEI treatment and efficacy monitoring
In this study, we established a model of incomplete ablation of hepatocellular carcinoma using percutaneous ethanol injection (PEI). Once the tumor volume reached approximately 100 mm3, all mice were randomly assigned to treatment, sham treatment, and negative control groups.
During the PEI procedure, an insulin needle was inserted along the long diameter of the tumor, with needle depth set at1/2 to 2/3 of the tumor diameter. Ethanol was injected at a rate of 25 μL every half minute, and the needle was slowly withdrawn after 5 minutes of injection. Ethanol leakage from the tumor was assessed using CT scans immediately following PEI treatment, defined as day 0. Subsequently, 18F-FDG PET/CT imaging was performed on day 1 post-PEI to evaluate therapeutic efficacy. Tumor volume and mouse body weight were monitored every 2 to 3 days. Tumor volume was calculated using the formula volume = (length × width^2)/2.
Radioligand therapy study
Mice were randomly assigned to five groups: PEI (group 1, n = 10), PEI + 0.45 mCi 177Lu-DOTA-tTF (group 2, n = 10), PEI + 0.75 mCi 177Lu-DOTA-tTF (group 3, n = 8), 0.45 mCi 177Lu-DOTA-tTF (group 4, n = 10), and saline (group 5, n = 10). During radiotherapy, one mouse died in […]

in vivo = assay: in vivo; set-up: species or system mice; conditions: mouse, iv, 1.2 MBq, total radioactivity, tumor uptake (biodistribution), PEI group
Protocol: (§7) We randomly divided tumor-bearing mice into the HD-PEI treatment (HD-PEI, n = 8), sham treatment (Sham, n = 8), and negative control groups (NC, n = 6). Al^18F-NOTA-tTF PET/CT imaging was conducted on days 1 and 6 post-PEI. Hepa1-6 tumor-bearing mice received an intravenous injection of 100 μL of Al^18F-NOTA-tTF (2.96 MBq). Tumor volume and mouse body weight were monitored every 2 to 3 days. Biodistribution studies were performed on days 1 and 6 post-PEI, with mice divided into PEI and NC groups. Al^18F-NOTA-tTF (1.2 MBq) was administered via tail vein injection, and biodistribution results were expressed as the percentage of injected dose per gram (%ID/g).

tissue factor (TF) [5] = molecular target: T1, tissue factor (TF); assay: in vivo; set-up: species or system mice; conditions: iv, 1.2 MBq, 1 h
Protocol: as §7

[6] = HD/LD-PEI models, day 1 post-PEI
[7] = HD/LD-PEI models, day 5 post-PEI
[8] = HD/LD-PEI models, day 12 post-PEI
[9] = day 1 post-PEI, 60 min post-injection, n = 6

tumor uptake SUVmax, NC group (tissue factor (TF) [4]; HD/LD-PEI models, day 1): 0.12 ± 0.04 | tumor uptake SUVmax, HD-PEI group (tissue factor (TF) [4]; [6]): 0.42 ± 0.17 | tumor uptake SUVmax, LD-PEI group (tissue factor (TF) [4]; [6]): 0.54 ± 0.23 | tumor uptake SUVmax, NC group (tissue factor (TF) [4]; HD/LD-PEI models, day 5): 0.16 ± 0.06 | tumor uptake SUVmax, HD-PEI group (tissue factor (TF) [4]; [7]): 0.33 ± 0.09 | tumor uptake SUVmax, LD-PEI group (tissue factor (TF) [4]; [7]): 0.30 ± 0.09 | tumor SUVmax, HD-PEI group (tissue factor (TF) [4]; [8]): 0.25 ± 0.10 | tumor SUVmax, LD-PEI group (tissue factor (TF) [4]; [8]): 0.31 ± 0.08 | tumor uptake SUVmax, blocked (tissue factor (TF) [4]; Hepa1-6 tumor-bearing mice, 0.2 mg unlabeled precursor, 60 min post-injection, n = 3): 0.07 ± 0.010 | tumor uptake SUVmax, non-blocked (tissue factor (TF) [4]; Hepa1-6 tumor-bearing mice, 60 min post-injection, n = 3): 0.13 ± 0.005 | tumor uptake SUVmax, NC group (tissue factor (TF) [4]; [9]): 0.12 ± 0.03 | tumor uptake SUVmax, Sham group (tissue factor (TF) [4]; [9]): 0.15 ± 0.04 | tumor uptake SUVmax, PEI group (tissue factor (TF) [4]; day 1 post-PEI, 60 min post-injection): 0.62 ± 0.14 | tumor uptake SUVmax, NC group (tissue factor (TF) [4]; day 6 post-PEI, n = 6): 0.11 ± 0.03 | tumor uptake SUVmax, Sham group (tissue factor (TF) [4]; day 6 post-PEI, n = 6): 0.11 ± 0.01 | tumor uptake SUVmax, PEI group (tissue factor (TF) [4]; day 6 post-PEI): 0.46 ± 0.23
Structure (SMILES): CC(C)C[C@H](NC(=O)[C@@H](NC(=O)[C@@H](N)CCCNC(=N)N)[C@@H](C)O)C(=O)N[C@@H](C)C(=O)N[C@@H](Cc1ccccc1)C(=O)N[C@H](C(=O)N[C@@H](CCCNC(=N)N)C(=O)N[C@@H](Cc1ccccc1)C(=O)N[C@@H](CCCCNC(=O)CCOCCOCCOCCOCCOCCOCCOCCOCCNC(=O)CN1CCN(CC(=O)O)CCN(CC(=O)O)CC1)C(=O)O)C(C)C [Al^18F-NOTA-tTF] (H-RTLAFVRFK([PEG8-NOTA])-OH)
Vitro stability in PBS [1]: > 95% (3 h) | Vitro stability in FBS [2]: > 95% (3 h) | in vitro stability in saline or fetal bovine serum [2]: remained stable | renal clearance [3]: rapid renal clearance | distribution phase half-life (Half-life Fast) ([3]; iv): 1.192 min | elimination phase half-life (Half-life Slow) ([3]; iv): 12.29 min | tissue uptake at 1 h (in vivo): 0.77 ± 0.25 %ID/g | tumor uptake (biodistribution), PEI group (tissue factor (TF) [5]): 0.50 ± 0.28 %ID/g
